Data on four compounds can be found in patent publication US7728146B2, “Enzyme inhibitors” (Probiodrug AG, priority 2006, dated 2010).

A word on the Ki: it is a dissociation constant, usually derived from enzyme kinetics or from competition with a known ligand. A high value points to lower affinity. By IC50 is commonly meant the point on the concentration scale where inhibition reaches its midpoint. In general, Papp A→B refers to how fast a substance crosses the layer from the apical side. As usually defined, the Papp B→A is how fast a substance crosses the layer from the basolateral side.

One series concerns the target DP IV (Homo sapiens, UniProt P27487). As to the kind of experiment: Ki and inhibition type, DP IV. Type of series: biochemical. Conditions: compounds obtained by preparative synthesis. The gist of the method:
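Ki by non-linear regression of 7 inhibitor dilutions (range from IC50) against 4 substrate dilutions, in triplicate, using purified human recombinant enzyme under IC50 assay conditions. Inhibition type assigned from the best-fitting equation (competitive, partial competitive, non-competitive); […].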

The target of the next series is DPII (Homo sapiens, UniProt Q9UHL4). Description: DPII assay. Type of series: biochemical. Conditions: for Selectivity DPII(IC50)/DPIV(Ki): ratio IC50 DPII / Ki DP IV. The protocol:
(§1) Determination of IC50 values for DPII and DP9 are done similarly as described for DP IV.
For DPII instead of the HEPES buffer a 0.2 M sodium acetate buffer pH 5.5 is used. As substrate Gly-Pro-AMC is used in a final concentration of 1 mM.

For another series, the target named is DP9 (Homo sapiens, UniProt Q86TI2). Description: DP9 assay. The format is biochemical. Conditions: for Selectivity DP9(IC50)/DPIV(Ki): ratio IC50 DP9 / Ki DP IV. The protocol:
as §1
For DP9 Gly Pro-AMC is used as substrate in a final concentration of 0.25 mM.

Another series can be described thus: Caco-2 transport assay. The format is in vitro ADME, human. Conditions: human, Caco-2, pH 7.5; for Papp A→B: apical to basal; for Papp B→A: basal to apical. The protocol: (§2) The concentration of compounds in the Caco experiments may be determined from their potency to inhibit recombinant human DP IV.
(§3) Reaction is started by addition of 20 μl rhDP IV and release of pNA was monitored at 405 nm. Samples are analyzed in several dilutions (undiluted, 1:10, 1:[…]). Dilutions are done in the Caco assay buffer. Activity measured with Caco-assay buffer alone is set to 100% and inhibitor concentration is calculated from the dilutions resulting in 20 to 80% inhibition according to the equation for competitive inhibition.
(§4) [formula] • I=inhibitor concentration • v0=velocity of the reaction without inhibitor (Caco assay buffer alone) • vi=velocity of the reaction with inhibitor sample • Ki=Ki-value of the compound • DF=dilution factor of the sample Transport Assay
(§5) The human colon adenocarcinome cell line Caco-2 are grown in 6- or 24-transwell microplates (Costar) for 21 days with MEM-alpha containing 10% FBS and 0.5% Gentamycin (Invitrogen). After 21 days of cultivation integrity of the cell layer are assessed by measurement of the transepitelial electrical resistance.
(§6) Transport measurements are carried out in triplicates at a pH of 7.5. For each compound and direction (apical to basal (a-b), basal to apical (b-a)) two separate experiments are done. Samples are collected from the donor and acceptor compartments at the beginning of the experiment and after 60 min (for 6-well plates, Donor at 0 and 120 min, Acceptor at 15, 30, 60 and 120 min).
(§7) Samples are analyzed in several dilutions for their ability to inhibit human recombinant DP IV and compound concentrations may be calculated using the prior determined Ki-value (see above).
(§8) The permeability coefficient Papp is calculated according to the following equation:
(§9) [formula] • VA=Volume of the acceptor compartment • A=Area of the transwell membrane • t=sampling time • cAt=concentration in the acceptor compartment at sampling time • CDO=concentration in the donor compartment at t=0
(§10) Papp-values>1e-5 cm/s are assessed as good permeable, value<1e-6 cm/s as not permeable. Papp-values in between as medium permeable. Compounds where no significant difference were found between a-b and b-a transport are assessed to be passive transported.
On the technique in general: Caco-2 monolayers are a common model of the intestinal barrier.

A further series concerns Caco-2 monolayer. As to the kind of experiment: Caco-2 transport assay. The format is in vitro ADME, human. Conditions: assessment of permeability and transport type. The protocol:
as §2, §3, §4, §5, §6, §7, §8, §9, §10

Series [1] can be described thus: Blood-brain distribution / LogBB. The note with it: male Wistar rats, bolus plus 60 min continuous i.v. infusion; for Kp at 60 min / Kp at 1 h: Wistar (Crl:WI), rat, brain and plasma, iv; for Kp at 1 h: read-out: Brain/Plasma ratio; for LogBB Mean: mean of the animals. The format is in vivo. The protocol: Male Wistar rats (N=20, 5 per Group; Crl:WI) with a body weight ranging between 300 and 350 g were purchased from Charles River Laboratories (Sulzfeld, Germany).
One week after adaptation to the housing conditions, catheters were implanted into the carotid artery and jugular vein of the rats under general anaesthesia (i.p. injection of 0.25 ml/kg b.w. Rompun® [2%], BayerVital, Germany and 0.5 ml/kg b.w. Ketamin 10, Atarost GmbH & Co., Twistringen, Germany). The animals were allowed to recover for one week. The catheters were flushed with heparin-saline (100 IU/ml) three times per week. In case of dysfunction of the catheter, a new animal were recruited to implant catheters into the carotid artery and jugular vein of this new rat under general anaesthesia. No anaesthetics were administered during infusion for compound transfer.
The bolus dose of compounds were dissolved in 10 μl DMSO and than diluted to 1 ml with saline (0.154 mol/l) and were injected via the venous catheter (n=5 rats). Thereafter, a continuous i.v. infusion of the compound solved in 10 μl DMSO and diluted to 5 ml with saline (infusion rate 0.083 ml/min; Perfusor^R fm, B. Braun, Melsungen AG, Germany) were commenced for 60 min. 150 μl arterial blood samples were taken at 0, 20, 40, 50 and 60 min and stored on ice until centrifugation (12000 rpm for 2 min). Separated plasma were frozen in liquid nitrogen for further analysis.
After 60 min primed-continuous infusion the N=5 rats were heparinized with 50 IU per 100 g b.w. heparin 5 min before the end of protease inhibitor infusion. The rats were quickly anaesthetized with i.a. ketamin® injection and bled to death from the abdominal vessels. The aorta supplying the upper part of the body were separated and canulated. The upper part of the body (including the brain) were perfused with 20 ml ice cold saline to flush the vessels free within the brain. The brains were taken out of the skull, rinsed briefly in ice cold saline and placed on filter paper.
Preparation: The brains were divided into their hemispheres, which were weighed and frozen in liquid nitrogen for further analysis.
In plasma samples and brain tissues concentrations of compounds were measured using the aforementioned LC-MS methods.

The mark [2] stands for this setting: sodium acetate buffer pH 5.5, Gly-Pro-AMC 1 mM.

Bounds are passed on as bounds.

DP IV, sequence (P27487 whole entry): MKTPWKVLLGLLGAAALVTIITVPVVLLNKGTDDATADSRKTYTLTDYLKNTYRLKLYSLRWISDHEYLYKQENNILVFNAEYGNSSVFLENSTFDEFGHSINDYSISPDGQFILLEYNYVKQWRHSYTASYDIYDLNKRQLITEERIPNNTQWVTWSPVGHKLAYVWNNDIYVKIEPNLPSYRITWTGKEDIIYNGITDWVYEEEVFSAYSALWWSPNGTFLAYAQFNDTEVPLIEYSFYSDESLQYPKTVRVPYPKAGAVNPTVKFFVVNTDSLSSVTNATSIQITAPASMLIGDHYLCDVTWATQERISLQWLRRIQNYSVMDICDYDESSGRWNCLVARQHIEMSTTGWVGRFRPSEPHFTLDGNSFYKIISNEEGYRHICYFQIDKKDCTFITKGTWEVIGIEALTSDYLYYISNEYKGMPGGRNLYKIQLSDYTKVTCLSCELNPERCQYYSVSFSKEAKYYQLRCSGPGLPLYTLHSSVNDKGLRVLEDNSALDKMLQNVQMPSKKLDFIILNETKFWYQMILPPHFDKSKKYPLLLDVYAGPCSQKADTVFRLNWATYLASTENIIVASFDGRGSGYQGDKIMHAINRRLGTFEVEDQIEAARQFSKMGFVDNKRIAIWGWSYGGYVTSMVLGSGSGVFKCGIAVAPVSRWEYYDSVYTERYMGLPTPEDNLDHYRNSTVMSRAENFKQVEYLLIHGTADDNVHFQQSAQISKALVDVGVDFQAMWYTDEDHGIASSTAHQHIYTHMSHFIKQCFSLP
DP9, sequence (Q86TI2 whole entry, species assumed): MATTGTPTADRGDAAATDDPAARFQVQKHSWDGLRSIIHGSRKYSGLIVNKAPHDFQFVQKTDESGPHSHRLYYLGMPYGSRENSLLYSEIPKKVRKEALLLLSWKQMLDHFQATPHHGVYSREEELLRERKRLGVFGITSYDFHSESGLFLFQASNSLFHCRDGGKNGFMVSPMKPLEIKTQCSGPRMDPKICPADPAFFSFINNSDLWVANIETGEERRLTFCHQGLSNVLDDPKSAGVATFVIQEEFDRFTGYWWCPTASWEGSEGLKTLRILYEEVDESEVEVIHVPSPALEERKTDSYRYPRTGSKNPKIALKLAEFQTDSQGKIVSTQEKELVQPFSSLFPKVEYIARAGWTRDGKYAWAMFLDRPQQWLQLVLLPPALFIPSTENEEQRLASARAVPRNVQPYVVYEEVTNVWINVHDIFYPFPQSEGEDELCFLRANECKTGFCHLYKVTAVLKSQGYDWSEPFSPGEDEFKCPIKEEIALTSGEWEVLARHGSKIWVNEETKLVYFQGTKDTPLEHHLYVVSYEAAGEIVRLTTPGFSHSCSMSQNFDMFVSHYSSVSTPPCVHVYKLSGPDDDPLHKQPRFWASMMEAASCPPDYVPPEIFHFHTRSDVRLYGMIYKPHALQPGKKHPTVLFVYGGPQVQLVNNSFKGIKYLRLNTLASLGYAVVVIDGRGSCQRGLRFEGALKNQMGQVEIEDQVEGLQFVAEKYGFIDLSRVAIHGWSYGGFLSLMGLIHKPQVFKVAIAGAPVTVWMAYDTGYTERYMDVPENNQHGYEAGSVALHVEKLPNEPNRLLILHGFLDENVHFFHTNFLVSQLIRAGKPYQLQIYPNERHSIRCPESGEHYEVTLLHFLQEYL

Regarding `NCc1c(-c2ccc(Cl)cc2Cl)ncn1Cc1ccsc1` [Example 130b, (4-(2,4-dichlorophenyl)-1-((thiophen-3-yl)methyl)-1H-imidazol-5-yl)methanamine], the Ki at DP IV was 0.00769 µM; on DPII, 3.84 µM; at DP9, 21.5 µM. In addition, the “Selectivity DPII(IC50)/DPIV(Ki)” value at DPII turned out to be 186. Besides, the IC50 is 1.43 µM on DPII (setting [2]) and 97.3 µM against DP9 (Gly Pro-AMC 0.25 mM). Further, on DP9, the “Selectivity DP9(IC50)/DPIV(Ki)” value is 12,653. The same compound registered a Papp A→B in “Caco-2 transport assay” of 40 ×10⁻⁶ cm/s. In the series “Caco-2 transport assay”, this compound gave a Papp B→A of 31.2 ×10⁻⁶ cm/s. Also, in the series on Caco-2 monolayer, the Transport entry is given as “good, passive”. Also, the LogBB in series [1] (Animal No. 1) was −0.65; in series [1] (Animal No. 2), −0.63; in series [1] (Animal No. 3), −1.03; in series [1] (Animal No. 4), −0.12; in series [1] (Animal No. 5), −0.76. In series [1], the Kp at 60 min turned out to be 0.23. Also, the Kp at 1 h in series [1] stood at 0.23. Also, in series [1], the “LogBB Mean” value is listed as −0.6380.
As to `NCc1c(-c2ccc(Cl)cc2Cl)ncn1Cc1ccccn1` [Example 39b], the Ki at DP IV is 0.00568 µM. Also, the “Selectivity DPII(IC50)/DPIV(Ki)” value on DPII is >176,056. Moreover, the 50% inhibitory concentration (IC50) on DPII (setting [2]) was > 100 µM. Besides, the “Selectivity DP9(IC50)/DPIV(Ki)” value on DP9 is reported as 20,951. The same compound yielded a Papp A→B in the series “Caco-2 transport assay” of 40.6 ×10⁻⁶ cm/s. The basolateral-to-apical permeability (Papp B→A) in “Caco-2 transport assay” was 42.5 ×10⁻⁶ cm/s. The Transport result in the series on Caco-2 monolayer was “good, passive”. Besides, the LogBB was −0.56 in series [1] (Animal No. 1); −0.43 in series [1] (Animal No. 2); −0.53 in series [1] (Animal No. 3); −0.38 in series [1] (Animal No. 4); −0.39 in series [1] (Animal No. 5). Also, the Kp at 60 min in series [1] turned out to be 0.275. Further, the Kp at 1 h in series [1] is 0.275. Besides, the “LogBB Mean” value in series [1] is listed as −0.4580.
Turning to `NCc1c(-c2ccc(Cl)cc2Cl)ncn1Cc1ccccc1` [Example 24b, (1-benzyl-4-(2,4-dichlorophenyl)-1H-imidazol-5-yl)methanamine], on DP IV, the inhibition constant (Ki) was determined as 0.00474 µM. At DPII, the “Selectivity DPII(IC50)/DPIV(Ki)” value is 6,329. Half-maximal inhibition on DPII (setting [2]) (IC50) was put at 30 µM. For the same compound, on DP9, the “Selectivity DP9(IC50)/DPIV(Ki)” value is recorded as 25,527. Besides, in the series “Caco-2 transport assay”, the Papp A→B was determined as 37.5 ×10⁻⁶ cm/s. For the same compound, in “Caco-2 transport assay”, the Papp B→A worked out at 41.7 ×10⁻⁶ cm/s. Further, the Transport entry in the series with Caco-2 monolayer is “good, passive”. Besides, the LogBB in series [1] (Animal No. 1) is listed as −0.36; in series [1] (Animal No. 2), −0.33; in series [1] (Animal No. 3), −0.26; in series [1] (Animal No. 4), −0.34; in series [1] (Animal No. 5), −0.29. In addition, in series [1], the Kp at 60 min came out at 0.483. Further, the Kp at 1 h in series [1] stood at 0.483. Further, the “LogBB Mean” value in series [1] is recorded as −0.3160.
In turn, `NCc1c(-c2ccc(Cl)cc2Cl)ncn1Cc1cccnc1` [Example 121b, (4-(2,4-dichlorophenyl)-1-((pyridin-3-yl)methyl)-1H-imidazol-5-yl)methanamine] returned a Ki at DP IV of 0.00296 µM. The “Selectivity DPII(IC50)/DPIV(Ki)” value at DPII is listed as 41,216. Moreover, at DPII (values >1e−4 are extrapolated values), the half-maximal inhibitory concentration (IC50) is 122 µM. Further, the “Selectivity DP9(IC50)/DPIV(Ki)” value on DP9 is reported as 34,797. In the series “Caco-2 transport assay”, this compound returned a Papp A→B of 36.4 ×10⁻⁶ cm/s and a Papp B→A of 40.4 ×10⁻⁶ cm/s. In the series on Caco-2 monolayer, the Transport entry is reported as “good, passive”. The LogBB in series [1] (Animal No. 1) was −0.57. The LogBB in series [1] (Animal No. 2) is given as −0.50. For the same compound, the LogBB in series [1] (Animal No. 3) is recorded as −0.70. The LogBB in series [1] (Animal No. 4) was −0.91. For the same compound, in series [1], the Kp at 60 min came out at 0.214, the Kp at 1 h is 0.214 and the “LogBB Mean” value is given as −0.6700.
